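Method: 48-hour compound exposure of cells in 96-well plates, five concentrations, linear interpolation of endpoints. GI50 is the concentration that inhibits growth by half.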 Active and inactive are the calls of the source. Cut-off read from the data, not from the text of the source: active = GI50 up to about 1.1 µM and inactive = higher.
Legend:
Assay in all cases: NCI-60 cell line screen, 48 h
786-0 = system: 786-0
A498 = system: A498
ACHN = system: ACHN
BT-549 = system: BT-549
HOP-62 = system: HOP-62
HT-29 = system: HT-29
K562 = system: K562
LOX IMVI = system: LOX IMVI
MDA-MB-435 = system: MDA-MB-435
MOLT-4 = system: MOLT-4
Malme-3M = system: Malme-3M
OVCAR-5 = system: OVCAR-5
PC-3 = system: PC-3
RPMI-8226 = system: RPMI-8226
SF-268 = system: SF-268
SF-295 = system: SF-295
SK-MEL-28 = system: SK-MEL-28
SK-MEL-5 = system: SK-MEL-5
T47D = system: T47D
TK-10 = system: TK-10

Measured: GI50

Nc1ccc(-c2ccc(Nc3cc(S(=O)(=O)O)c(N)c4c3C(=O)c3ccccc3C4=O)cc2)c(S(=O)(=O)O)c1
inactive: 786-0 > 100 µM | A498 > 100 µM | ACHN > 100 µM | BT-549 > 100 µM | HOP-62 > 100 µM | HT-29 > 100 µM | K562 > 100 µM | LOX IMVI > 100 µM | MDA-MB-435 > 100 µM | MOLT-4 41.8 µM | Malme-3M > 100 µM | OVCAR-5 > 100 µM | PC-3 > 100 µM | RPMI-8226 > 100 µM | SF-268 > 100 µM | SF-295 > 100 µM | SK-MEL-28 > 100 µM | SK-MEL-5 > 100 µM | T47D > 100 µM | TK-10 > 100 µM

CCOC(=O)C1CCC(=O)N1C(=O)c1ccccc1 (stereo not given)
inactive: 786-0 > 100 µM | A498 > 100 µM | ACHN > 100 µM | BT-549 > 100 µM | HOP-62 > 100 µM | HT-29 > 100 µM | K562 > 100 µM | LOX IMVI 92.3 µM | MDA-MB-435 > 100 µM | MOLT-4 > 100 µM | Malme-3M > 100 µM | OVCAR-5 > 100 µM | PC-3 > 100 µM | RPMI-8226 > 100 µM | SF-268 > 100 µM | SF-295 > 100 µM | SK-MEL-28 > 100 µM | SK-MEL-5 > 100 µM | T47D > 100 µM | TK-10 > 100 µM

CC[C@@H]1CC[C@@H]2[C@H](CC[C@]3(C)[C@@H](O)CC[C@@H]23)[C@H]1C(=O)O
inactive: 786-0 > 100 µM | A498 > 100 µM | ACHN > 100 µM | BT-549 > 100 µM | HOP-62 > 100 µM | HT-29 > 100 µM | K562 > 100 µM | LOX IMVI > 100 µM | MDA-MB-435 > 100 µM | MOLT-4 > 100 µM | Malme-3M > 100 µM | OVCAR-5 > 100 µM | PC-3 > 100 µM | RPMI-8226 > 100 µM | SF-268 > 100 µM | SF-295 > 100 µM | SK-MEL-28 > 100 µM | SK-MEL-5 > 100 µM | T47D > 100 µM | TK-10 > 100 µM

c1ccc2oc(-c3ccc(-c4nc5ccccc5o4)c4c3CC4)nc2c1
inactive: 786-0 > 100 µM | A498 > 100 µM | ACHN > 100 µM | BT-549 > 100 µM | HOP-62 > 100 µM | HT-29 > 100 µM | K562 > 100 µM | LOX IMVI > 100 µM | MDA-MB-435 > 100 µM | MOLT-4 > 100 µM | Malme-3M > 100 µM | OVCAR-5 > 100 µM | PC-3 > 100 µM | RPMI-8226 > 100 µM | SF-268 > 100 µM | SF-295 > 100 µM | SK-MEL-28 > 100 µM | SK-MEL-5 > 100 µM | T47D > 100 µM | TK-10 > 100 µM

NC(CSCc1ccc(I)cc1)C(=O)O (stereo not given)
inactive: 786-0 > 100 µM | A498 > 100 µM | ACHN > 100 µM | BT-549 > 100 µM | HOP-62 > 100 µM | HT-29 > 100 µM | K562 > 100 µM | LOX IMVI > 100 µM | MDA-MB-435 > 100 µM | MOLT-4 > 100 µM | Malme-3M > 100 µM | OVCAR-5 > 100 µM | PC-3 > 100 µM | RPMI-8226 > 100 µM | SF-268 > 100 µM | SF-295 > 100 µM | SK-MEL-28 > 100 µM | SK-MEL-5 > 100 µM | T47D > 100 µM | TK-10 > 100 µM

COc1ccccc1NC(=O)C1=C(C)NC(C)=C(C(=O)Nc2ccccc2OC)C1c1ccco1
inactive: 786-0 4.45 µM | A498 4.3 µM | ACHN 6.41 µM | BT-549 8.49 µM | HOP-62 6.28 µM | HT-29 3.92 µM | K562 5.19 µM | LOX IMVI 8.07 µM | MDA-MB-435 3.48 µM | MOLT-4 3.87 µM | Malme-3M 4.2 µM | OVCAR-5 39.8 µM | PC-3 3.47 µM | RPMI-8226 4.52 µM | SF-268 10.3 µM | SF-295 4.31 µM | SK-MEL-28 19.7 µM | SK-MEL-5 3.02 µM | T47D 11.9 µM | TK-10 19.5 µM

Cc1c(/N=C\c2ccc(N(CCC#N)CCC#N)cc2)c(=O)n(-c2ccccc2)n1C
inactive: 786-0 24.4 µM | A498 69.2 µM | ACHN 22.5 µM | BT-549 > 100 µM | HOP-62 31.5 µM | HT-29 > 100 µM | K562 > 100 µM | LOX IMVI > 100 µM | MDA-MB-435 > 100 µM | MOLT-4 > 100 µM | Malme-3M > 100 µM | OVCAR-5 > 100 µM | PC-3 > 100 µM | RPMI-8226 > 100 µM | SF-268 64.6 µM | SF-295 25.7 µM | SK-MEL-28 > 100 µM | SK-MEL-5 > 100 µM | T47D > 100 µM | TK-10 24.1 µM

CO/C=C/C=C(\C#N)C(=O)OC
inactive: 786-0 > 100 µM | A498 > 100 µM | ACHN > 100 µM | BT-549 > 100 µM | HOP-62 > 100 µM | HT-29 > 100 µM | K562 > 100 µM | LOX IMVI > 100 µM | MDA-MB-435 > 100 µM | MOLT-4 16.9 µM | Malme-3M > 100 µM | OVCAR-5 > 100 µM | PC-3 > 100 µM | RPMI-8226 > 100 µM | SF-268 > 100 µM | SF-295 > 100 µM | SK-MEL-28 > 100 µM | SK-MEL-5 > 100 µM | T47D > 100 µM | TK-10 > 100 µM

Clc1nc(-c2ccccc2)nc(Cl)c1Cl
inactive: 786-0 8.05 µM | A498 17.6 µM | ACHN 4.94 µM | BT-549 20.6 µM | HOP-62 18 µM | HT-29 9.89 µM | K562 3.76 µM | LOX IMVI 2.26 µM | MDA-MB-435 12.9 µM | MOLT-4 3.1 µM | Malme-3M 5.31 µM | OVCAR-5 15.8 µM | PC-3 11.8 µM | RPMI-8226 4.29 µM | SF-268 11.6 µM | SF-295 17.3 µM | SK-MEL-28 16.8 µM | SK-MEL-5 13.4 µM | T47D 10 µM | TK-10 26.7 µM

CC(C)(C)c1ccc(-c2nc3ccc(Cl)cc3c(=O)o2)cc1
inactive: 786-0 36.6 µM | A498 23.4 µM | ACHN 14.1 µM | BT-549 21.2 µM | HOP-62 20.9 µM | HT-29 23.1 µM | K562 15.8 µM | LOX IMVI 15.4 µM | MDA-MB-435 24.1 µM | MOLT-4 16.9 µM | Malme-3M 16.6 µM | OVCAR-5 25.1 µM | PC-3 21.5 µM | RPMI-8226 19.6 µM | SF-268 22 µM | SF-295 13 µM | SK-MEL-28 21.3 µM | SK-MEL-5 12.8 µM | T47D 20.5 µM | TK-10 41.3 µM

— ChEMBL document CHEMBL1201862, “PubChem BioAssay data set” (2004)
